# In patent publication US7553966B2, “Glucocorticoid mimetics, methods of making them, pharmaceutical compositions, and uses thereof” (Boehringer Ingelheim Pharmaceuticals, Inc., priority 2002, dated 2009):
# Biological target: T1, human glucocorticoid receptor (GR) complex (Homo sapiens, UniProt P04150)
# T1 construct: made in house; host or cells: insect expression system (baculovirus lysate)
# T1 sequence (P04150 1-777): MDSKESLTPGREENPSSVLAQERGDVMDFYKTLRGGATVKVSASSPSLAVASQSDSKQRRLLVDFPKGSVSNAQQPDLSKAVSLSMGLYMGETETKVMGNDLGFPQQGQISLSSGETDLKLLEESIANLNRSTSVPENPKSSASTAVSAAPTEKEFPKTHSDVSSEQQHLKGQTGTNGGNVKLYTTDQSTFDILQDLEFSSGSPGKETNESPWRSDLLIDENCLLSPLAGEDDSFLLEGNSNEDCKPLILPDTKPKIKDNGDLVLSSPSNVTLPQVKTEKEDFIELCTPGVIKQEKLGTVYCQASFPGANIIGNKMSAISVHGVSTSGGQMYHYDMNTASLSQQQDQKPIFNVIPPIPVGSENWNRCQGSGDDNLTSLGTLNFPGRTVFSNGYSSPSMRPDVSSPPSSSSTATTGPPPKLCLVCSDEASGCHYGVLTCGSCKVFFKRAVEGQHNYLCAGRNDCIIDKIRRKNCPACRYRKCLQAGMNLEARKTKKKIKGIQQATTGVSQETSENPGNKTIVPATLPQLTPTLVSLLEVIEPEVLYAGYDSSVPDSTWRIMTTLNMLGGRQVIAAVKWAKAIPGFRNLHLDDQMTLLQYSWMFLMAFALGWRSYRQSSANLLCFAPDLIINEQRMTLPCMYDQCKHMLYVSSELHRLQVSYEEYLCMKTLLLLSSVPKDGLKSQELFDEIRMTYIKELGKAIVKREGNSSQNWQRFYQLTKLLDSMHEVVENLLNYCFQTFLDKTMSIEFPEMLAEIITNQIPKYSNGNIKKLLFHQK
# Assay: Glucocorticoid Receptor Competitive Binding Assay (fluorescence polarization, TAMRA-labeled dexamethasone probe)
# Conditions: qualitative statement; competition with TAMRA-labeled dexamethasone
# Experimental: Compounds of the invention were evaluated for binding to the steroid receptor by a fluorescence polarization competitive binding assay.
# A. Glucocorticoid Receptor Competitive Binding Assay
# Step 1. Characterization of the Fluorescent Probe
# The wavelengths for maximum excitation and emission of the fluorescent probe should first be measured. An example of such a probe is rhodamine (TAMRA)-labeled dexamethasone.
# The affinity of the probe for the steroid receptor was then determined in a titration experiment. The fluorescence polarization value of the probe in assay buffer was measured on an SLM-8100 fluorometer using the excitation and emission maximum values described above. Aliquots of expression vector lysate were added and fluorescence polarization was measured after each addition until no further change in polarization value was observed. Non-linear least squares regression analysis was used to calculate the dissociation constant of the probe from the polarization values obtained for lysate binding to the probe.
# Step 2. Screening for Inhibitors of Probe Binding
# This assay uses fluorescence polarization (FP) to quantitate the ability of test compounds to compete with tetramethyl rhodamine (TAMRA)-labeled dexamethasone for binding to a human glucocorticoid receptor (GR) complex prepared from an insect expression system. The assay buffer was: 10 mM TES, 50 mM KCl, 20 mM Na2MoO4. 2H2O, 1.5 mM EDTA, 0.04% w/v CHAPS, 10% v/v glycerol, 1 mM dithiothreitol, pH 7.4. Test compounds were dissolved to 1 mM in neat DMSO and then further diluted to 10× assay concentration in assay buffer supplemented with 10% v/v DMSO. Test compounds were serially diluted at 10× assay concentrations in 10% DMSO-containing buffer in 96-well polypropylene plates. […] Positive controls were reaction mixtures containing no test compound; negative controls (blanks) were reaction mixtures containing 0.7 μM to 2 μM dexamethasone. […] IC50 values were determined by iterative non-linear curve fitting of the FP signal data to a 4-parameter logistic equation.
row,SMILES,activity in the GR binding assay
1,"CC(C)(CC(O)(Cc1cc2cccc(F)c2[nH]1)C(F)(F)F)c1ccc(F)cc1O (centres unmarked) [5-Fluoro-2-[4,4,4-trifluoro-3-(7-fluoro-1H-indol-2-ylmethyl)-3-hydroxy-1,1-dimethylbutyl]phenol]",potent activity
2,"COc1ccc(C(C)(C)CC(O)(Cc2cc3ccccc3[nH]2)C(F)(F)F)cc1 (centres unmarked) [1,1,1-Trifluoro-2-(1H-indol-2-ylmethyl)-4-(4-methoxyphenyl)-4-methylpentan-2-ol]",potent activity
3,CC(C)(CC(O)(Cc1cc2cc(C#N)ccc2[nH]1)C(F)(F)F)c1cccc(F)c1 (centres unmarked) [2-[4-(3-Fluorophenyl)-2-hydroxy-4-methyl-2-trifluoromethylpentyl]-1H-indole-5-carbonitrile],potent activity
4,"COc1ccc(F)cc1C(C)(C)CC(O)(Cc1nc2cc(C)cc(C)c2[nH]1)C(F)(F)F (centres unmarked) [2-(5,7-Dimethyl-1H-benzoimidazol-2-ylmethyl)-1,1,1-trifluoro-4-(5-fluoro-2-methoxyphenyl)-4-methylpentan-2-ol]",potent activity
5,"CC(C)(CC(O)(Cc1ccnc2ccccc12)C(F)(F)F)c1ccc2c(c1)CCO2 (centres unmarked) [4-(2,3-Dihydrobenzofuran-5-yl)-1,1,1-trifluoro-4-methyl-2-quinolin-4-ylmethylpentan-2-ol]",potent activity
6,CC(C)(CC(O)(Cc1[nH]c2ccccc2c1C#N)C(F)(F)F)c1ccccc1 (centres unmarked) [2-(2-Hydroxy-4-methyl-4-phenyl-2-trifluoromethylpentyl)-1H-indole-3-carbonitrile],potent activity
7,"CC(C)(CC(O)(Cc1cc2cccc(F)c2[nH]1)C(F)(F)F)c1ccccc1 (centres unmarked) [1,1,1-Trifluoro-2-(7-fluoro-1H-indol-2-ylmethyl)-4-methyl-4-phenylpentan-2-ol]",potent activity
8,"COc1ccc(F)cc1C(C)(C)CC(O)(Cc1ccnc(Br)c1)C(F)(F)F (centres unmarked) [1,1,1-Trifluoro-4-(5-fluoro-2-methoxyphenyl)-4-methyl-2-(2-bromopyridin-4-ylmethyl)pentan-2-ol]",potent activity
9,"CC(C)(CC(O)(Cc1cc(Cl)nc2ccccc12)C(F)(F)F)c1cc(F)ccc1O (centres unmarked) [1,1,1-Trifluoro-4-(5-fluoro-2-hydroxyphenyl)-4-methyl-2-(2-chloroquinolin-4-ylmethyl)pentan-2-ol]",potent activity
10,"COc1ccc(F)cc1C(C)(C)CC(O)(Cc1ccnc(Cl)c1)C(F)(F)F (centres unmarked) [1,1,1-Trifluoro-4-(5-fluoro-2-methoxyphenyl)-4-methyl-2-(2-chloropyridin-4-ylmethyl)pentan-2-ol]",potent activity
11,"CC(C)(CC(O)(Cc1ccnc(Cl)c1)C(F)(F)F)c1cc(F)ccc1O (centres unmarked) [1,1,1-Trifluoro-4-(5-fluoro-2-hydroxyphenyl)-4-methyl-2-(2-chloropyridin-4-ylmethyl)pentan-2-ol]",potent activity
12,"CC(C)(CC(O)(Cc1cc2ccccc2[nH]1)C(F)(F)F)c1cccc(F)c1 (centres unmarked) [1,1,1-Trifluoro-4-(3-fluorophenyl)-2-(1H-indol-2-ylmethyl)-4-methylpentan-2-ol]",potent activity
13,"CC(C)(CC(O)(Cc1ccnc2ccccc12)C(F)(F)F)c1cccc2c1OCCC2 (centres unmarked) [4-Chroman-8-yl-1,1,1-trifluoro-4-methyl-2-quinolin-4-ylmethylpentan-2-ol]",potent activity
14,"COc1c(C(C)(C)CC(O)(Cc2ccnc3ccccc23)C(F)(F)F)ccc2ccccc12 (centres unmarked) [1,1,1-Trifluoro-4-(1-methoxynaphthalen-2-yl)-4-methyl-2-quinolin-4-ylmethylpentan-2-ol]",potent activity
15,"CC(C)(CC(O)(Cc1cc2ccncc2[nH]1)C(F)(F)F)c1cc(F)cc2c1OCC2 (centres unmarked) [1,1,1-Trifluoro-4-(5-fluoro-2,3-dihydrobenzofuran-7-yl)-4-methyl-2-(1H-pyrrolo[2,3-c]pyridin-2-ylmethyl)pentan-2-ol]",potent activity
16,"CC(C)(CC(O)(Cc1ccnc2cc(F)ccc12)C(F)(F)F)c1ccc(F)cc1 (centres unmarked) [1,1,1-Trifluoro-4-(4-fluorophenyl)-2-(7-fluoroquinolin-4-ylmethyl)-4-methylpentan-2-ol]",potent activity
17,COc1ccc(F)cc1C(C)(C)CC(O)(Cc1cc2ccccc2[nH]1)CC1CC1 (centres unmarked) [1-Cyclopropyl-4-(5-fluoro-2-methoxyphenyl)-2-(indol-2-ylmethyl)-4-methylpentan-2-ol],potent activity
18,COc1cccc(C(C)(C)CC(O)(Cc2cc3cc(C#N)ccc3[nH]2)C(F)(F)F)c1 (centres unmarked) [2-[2-Hydroxy-4-(3-methoxyphenyl)-4-methyl-2-trifluoromethylpentyl]-1H-indole-5-carbonitrile],potent activity
19,"CC(C)(CC(O)(Cc1cc2ccncc2[nH]1)C(F)(F)F)c1cccc(F)c1 (centres unmarked) [1,1,1-Trifluoro-4-(3-fluorophenyl)-4-methyl-2-(1H-pyrrolo[2,3-c]pyridin-2-ylmethyl)pentan-2-ol]",potent activity
20,COC(=O)c1ccc2[nH]c(CC(O)(CC(C)(C)c3cc(F)ccc3OC)C(F)(F)F)cc2c1 (centres unmarked) [2-[4-(5-Fluoro-2-methoxyphenyl)-2-hydroxy-4-methyl-2-trifluoromethylpentyl]-1H-indole-5-carboxylic acid methyl ester],potent activity
21,"CC(C)(CC(O)(Cc1ccnc2ccccc12)C(F)(F)F)c1cccc(O)c1 (centres unmarked) [3-(4,4,4-Trifluoro-3-hydroxy-1,1-dimethyl-3-quinolin-4-ylmethylbutyl)phenol]",potent activity
22,COC(=O)c1ccc2[nH]c(CC(O)(CC(C)(C)c3ccc(F)cc3OC)C(F)(F)F)cc2c1 (centres unmarked) [2-[4-(4-Fluoro-2-methoxyphenyl)-2-hydroxy-4-methyl-2-trifluoromethylpentyl]-1H-indole-5-carboxylic acid methyl ester],potent activity
23,"CC(C)(CC(O)(Cc1cc2ccccc2[nH]1)C(F)(F)F)c1ccc(O)cc1 (centres unmarked) [4-[4,4,4-Trifluoro-3-hydroxy-3-(1H-indol-2-ylmethyl)-1,1-dimethylbutyl]phenol]",potent activity
24,"COc1ccc(F)cc1C(C)(C)CC(O)(Cn1ccnc1-c1ccccc1)C(F)(F)F (centres unmarked) [2-(2-Phenylimidazol-1-ylmethyl)-1,1,1-trifluoro-4-(5-fluoro-2-methoxyphenyl)-4-methylpentan-2-ol]",potent activity
25,"Cc1ccc(C(C)(C)CC(O)(Cc2cc3ccccc3[nH]2)C(F)(F)F)cc1 (centres unmarked) [1,1,1-Trifluoro-2-(1H-indol-2-ylmethyl)-4-methyl-4-p-tolylpentan-2-ol]",potent activity
26,"COc1ccc(F)cc1C(C)(C)CC(O)(Cc1cc2ncccc2[nH]1)C(F)(F)F (centres unmarked) [1,1,1-Trifluoro-4-(5-fluoro-2-methoxyphenyl)-4-methyl-2-(1H-pyrrolo[3,2-b]pyridin-2-ylmethyl)pentan-2-ol]",potent activity
27,"CC(C)(CC(O)(Cc1cc2ccccc2[nH]1)C(F)(F)F)c1ccc2c(c1)CCO2 (centres unmarked) [4-(2,3-Dihydrobenzofuran-5-yl)-1,1,1-trifluoro-2-(1H-indol-2-ylmethyl)-4-methylpentan-2-ol]",potent activity
28,"COc1ccc(F)cc1C(C)(C)CC(O)(Cc1cc2cccnc2[nH]1)C(F)(F)F (centres unmarked) [1,1,1-Trifluoro-4-(5-fluoro-2-methoxyphenyl)-4-methyl-2-(1H-pyrrolo[2,3-b]pyridin-2-ylmethyl)pentan-2-ol]",potent activity
29,"CCc1cccc(C(C)(C)CC(O)(Cc2ccnc3ccccc23)C(F)(F)F)c1OC (centres unmarked) [4-(3-Ethyl-2-methoxyphenyl)-1,1,1-trifluoro-4-methyl-2-quinolin-4-ylmethylpentan-2-ol]",potent activity
